Measurements: patent US6800630B2, “Pyrimidine derivatives having antitumor effect” (Shionogi & Co., Ltd., priority 2000, dated 2004)
Converted amounts (≈) assume the structure as drawn.

How the values were obtained:
Assay type in all cases: cell-based
[1] = system: human pancreas cancer PANC-1; experiment: In vitro cell growth inhibition test, MTT assay; conditions: MTT assay 4 days after compound addition
Source text: (§1) Test Example 2 In vitro cell growth inhibition test Cells and MTT assay
(§2) Human squamous lung cancer […], human squamous lung cancer Ma44, human lung adenocarcinoma A549, human colon cancer HT29 and human pancreas cancer PANC-1 were used.

[2] = system: human squamous lung cancer RERF-RC-AI; experiment: In vitro cell growth inhibition test, MTT assay; conditions: MTT assay 4 days after compound addition
Source text: as §1, §2

H460 = experiment: In vitro cell growth inhibition test, MTT assay; conditions: MTT assay 4 days after compound addition
Source text: [The source words this procedure for another cell line and reports this cell line under the same test.] as §1, §2

human colon cancer HT29 = experiment: In vitro cell growth inhibition test, MTT assay; conditions: MTT assay 4 days after compound addition
Source text: as §1, §2

[3] = system: human squamous lung cancer Ma44; experiment: In vitro cell growth inhibition test, MTT assay; conditions: MTT assay 4 days after compound addition
Source text: as §1, §2

[4] = system: human lung adenocarcinoma A549; experiment: In vitro cell growth inhibition test, MTT assay; conditions: MTT assay 4 days after compound addition
Source text: as §1, §2

[5] = system: DT-C cells (pGV-P transfected v-ki-ras-transformed NIH373 cells); experiment: Luciferase activity of DT-C control cells (IC50-C), index of non-specific transcription-inhibitory effect or cytotoxicity; conditions: tested concentration nearest to 50% inhibition in DT-C cells
Source text: (§3) Test Example 1 Inhibitory effect against cellular signaling derived from Ras oncogene products
(§4) Based on the reporter plasmid (pGV-P (Toyo Ink, Japan)), in which luciferase gene was ligated to SV40-derived minimal promoter, we constructed a plasmid designated pRRE3-luc by inserting 3 copies of chemically synthesized oligonucleotides (Sequence: CAGGATATGACTCT, derived from mouse NVL-3 (M. A. Reddy et al.(1992)Mol. Endocrinol., 6, 1051)) into upstream of the promoter. v-ki-ras-transformed NIH373 cells (DT cells, provided by Dr. Makoto Noda (Kyoto Univ., School of medicine)) were transfected with this plasmid by liposome-mediated transfection and transfected cell lines stably incorporated and maintained each plasmid were obtained. We named pGV-P and pRRE3-transfected cell line as DT-C and DT-R, respectively and used in the assay described below.
(§5) i) All the cell lines were cultured in Dulbecco's Modified Essential Medium (DMEM: 10% Fetal Calf Serum(FCS: Hyclone, USA)) including […] kanamycin (Meiji Seika, Japan) in humidified incubator under condition of 5% CO2 at 37° C.
(§6) ii) DT-C and DT-R cells were seeded at 2500 cells/well into flat-bottom 96 well multiplate (Sumitomo bakelite) and incubated for 24 hours.
(§7) iii) Test compounds were prepared as 1 mg/ml DMSO solution.
(§8) iv) The solution of test compounds were added to the culture. Tested compounds are used at the concentration from […] to 0.51 ng/ml with 3-fold dilution.
(§9) v) After 24 hours, the culture supernatant was completely aspirated and 20 μl of cell-lysing solution (PGC-50 (Toyo Ink, Japan)) was added before cells were dried up. In order to lyse the cells completely, multiwell plates were left at room temperature for 10 to 30 min. The plates were wrapped up and stored at −20° C. till the day of measurement.
(§10) i) Melt the samples by putting 96 well multiplate at 37° C. and add 90 μl/well 25 mM Tris (pH 7.5).
(§11) ii) Transfer 50 μl of the sample (110 μl) to the 96 well microplate (Microlite 1 (Dynatech)) for measurement.
(§12) iii) Measure the samples by the luminometer, LUMINOUS CT9000D (Dia-Yatron, Japan). We used Pickagene luminescence kit PGL2000 or LT2.0 (Toyo Ink, Japan) as enzyme substrates for luminescence measurement (50 μl/well).
(§13) i) The luciferase activity of DT-C cells and DT-R cells were plotted in the graph where the relative activity and the compound concentration were expressed as Y-axis and X-axis, respectively. We judged by the degree of dissociation between the activities of DT-C cells and DT-R cells as an index.
b) Among the points of concentration tested, the concentration which is the nearest to 50% inhibition concentration at DT-C cells (IC50-C), was shown as an index of non-specific transcription-inhibitory effect or of cytotoxicity. In case of positive compounds, 50% inhibition concentration in DT-C cells which was higher than the active concentration was expressed as IC50-C.

[6] = system: signal derived from Ras oncogene products (DT-R cells, pRRE3-luc transfected v-ki-ras-transformed NIH373 cells); experiment: Inhibitory effect against cellular signaling derived from Ras oncogene products: RRE-luciferase reporter, Minimal Active Concentration (MAC) at which DT-C and DT-R activities dissociate; conditions: minimal concentration at which luciferase activities of DT-C and DT-R cells dissociated
Source text: as §3, §4, §5, §6, §7, §8, §9, §10, §11, §12, §13
ii) Concretely, efficacy of the compound was expressed by two values described below.
a) Among the points of concentration tested, the minimal concentration (Minimal Active Concentration: MAC), at which the activities of DT-C cells and DT-R cells dissociated, was shown as an index of efficacy of the compound.

| Compound | IC50 PANC-1 [1] [ng/mL] | IC50 RERF-LC-AI [2] [ng/mL] | IC50 H460 (H460) [ng/mL] | IC50 HT-29 (human colon cancer HT29) [ng/mL] | IC50 Ma44 [3] [ng/mL] | IC50 A549 [4] [ng/mL] | IC50 (IC50-C) [5] [µg/mL] | MAC (Minimal Active Concentration) [6] [µg/mL] |
| --- | --- | --- | --- | --- | --- | --- | --- | --- |
| CCCSC(=Nc1nc(C)ncc1CSc1nnc(-c2ccc(N)cc2)o1)NCC [Compound A-16] | 6.5 (≈ 0.0147 µM) | 7.3 (≈ 0.0165 µM) | 10.7 (≈ 0.0241 µM) | 8.1 (≈ 0.0183 µM) | 13.6 (≈ 0.0307 µM) | 14.6 (≈ 0.0329 µM) | >10 | <0.000508 |
| CCCNC(=Nc1nc(C)ncc1CSc1nnc(-c2ccc(C)cc2)o1)SC [Compound A-17] | 10.7 (≈ 0.025 µM) | 13.2 (≈ 0.0308 µM) | 15 (≈ 0.035 µM) | 15 (≈ 0.035 µM) | 24.1 (≈ 0.0562 µM) | 17.4 (≈ 0.0406 µM) | >10 | 0.0412 |
| CCCNC(=Nc1nc(C)ncc1CSc1nnc(-c2ccc([N+](=O)[O-])cc2)o1)NN(C)C [Compound A-18] | 0.4 (≈ 0.000848 µM) | 0.4 (≈ 0.000848 µM) | 27.5 (≈ 0.0583 µM) | 0.4 (≈ 0.000848 µM) | 0.4 (≈ 0.000848 µM) | 51.4 (≈ 0.109 µM) | >10 | 0.00457 |
